PMC9545474, “Anticancer Water‐Soluble Organoruthenium Complexes: Synthesis and Preclinical Evaluation” (Chembiochem, 2022)
Counter-ions that a name gives are not always drawn. Like-named read-outs stand apart in the source and are kept apart here.

Legend:
A2780 cells = assay: FITC annexin-V / PI apoptosis assay by flow cytometry; type: cell-based, human; conditions: A2780, 24 h, complexes 2×IC50, doxorubicin 0.5 µM; for viability at 0.5 µM: Homo sapiens
Description: Annexin V‐FITC and propidium iodide (PI) have been used to distinguish between viable cells (Q1‐LL), early apoptotic cells (Q1‐LR), late apoptotic cells (Q1‐UR), and necrotic cells (Q1‐UL). […] Both complexes 6 and 8 induce apoptosis of A2780 cells and treatment with the complexes results in 99.6 % and 95.4 % of the cells in late apoptosis, respectively.
Figure 9 Flow cytometry analysis of A2780 cells exposed to complexes 6 or 8 at twice the IC50 concentration compared to a negative control. FITC reads annexin fluorescence and PE reads propidium iodide. Abbreviations: Q1‐UL=non‐viable cells; Q1‐UR=late‐stage apoptotic cells; Q1‐LR=early‐stage apoptotic cells and Q1‐LL=healthy cells.
FITC annexin‐V apoptosis assay: Flow cytometry analysis of apoptotic populations was carried out using the FITC Annexin V Apoptosis Detection Kit with PI (BioLegend®) according to manufacturer's instructions. Briefly, A2780 cells were seeded in 6‐well plates at a concentration of 1.0×10^6 cells per well and the plates were incubated for 24 h at 37 °C and a 5 % CO2 humidified atmosphere. […] Cells were then harvested using trypsin (without EDTA) and stained with PI/Annexin V‐FITC. After staining in the dark for 15 min at room temperature, cell pellets were analysed in a BD Accuri C6 Plus System flow cytometer and data was analysed using the BD Accuri C6 Plus software. These experiments were carried out in duplicate of triplicates in independent experiments; although only selected dot plots are shown, full numerical data and statistical analysis can be found in the Supporting Information.

[1] = test system: A2780cisR cisplatin-resistant ovarian cancer cells; assay: 24-hour MTT chemosensitivity assay with 72-hour recovery, A2780cisR; type: cell-based, human; conditions: for IC50: read-out: IC50 values ±SD, A2780cisR; for Selectivity index (SI), A2780cisR: mean IC50 PNT2 / mean IC50 A2780cisR
Description: (§1) Chemosensitivity studies were undertaken using a 24‐hour MTT assay, with a 72‐hour recovery period. The IC50 values were determined against ovarian A2780 (cisplatin‐sensitive) and A2780cisR (cisplatin‐resistant) cancer cell lines, non‐small‐cell lung H460 cancer cell line, and normal prostate PNT2 cell line, exposed to each of compounds 4–8, cisplatin or the phosphine ligands (Table 1 and S4, Figures S29–S31). […] This is unusual but can be related to solubility issues not visible for the naked eye and thus hindering its activity in cells. […] When tested on their own, the phosphine ligands are not active below 100 μM for all four cell lines. […] This therefore prevents comparison with the well‐known RAPTA family, and more especially with RAPTA−C which bears a PTA ligand and a p‐cym ligand, making this complex relatively similar in terms of geometry with complex 4.[21] […] This confirms the interest of the sulfur coordinating atom in terms of cytotoxicity for organoruthenium complexes.[23]
(§2) Chemosensitivity assay: In vitro chemosensitivity tests were performed against A2780, A2780cisR, PNT2 and H460 cells. Cells were routinely maintained as monolayer cultures in RPMI 1640 medium supplemented with 10 % foetal calf serum, penicillin (100 I.U./mL) and streptomycin (100 μg/mL), sodium pyruvate (1 mM) and L‐glutamine (2 mM). For chemosensitivity studies, cells were seeded in 96‐well plates at a concentration of 7.5×10^3 cells per well and the plates were incubated for 24 h at 37 °C and a 5 % CO2 humidified atmosphere prior to drug exposure.
(§3) Complexes were dissolved in either DMSO (complexes 4, 5, and 8) or PBS (complexes 6 and 7) to provide stock solutions which were further diluted with media to provide a range of final concentrations. Drug‐media solutions were added to cells (the final concentration of DMSO was less than 1 % (v/v) in all cases) and incubated for 24 h at 37 °C and a 5 % CO2 humidified atmosphere. The drug‐media solution was removed from the wells and the cells were washed with PBS (100 μL, twice) and 200 μL of complete fresh media were added to each well. The plates were further incubated for 72 h at 37 °C and a 5 % CO2 humidified atmosphere to allow for a period of recovery. 3‐(4,5‐dimethylthiazol‐2‐yl)‐2,5‐diphenyltetrazolium bromide (MTT) (40 μL, 2.5 mg/mL) was added to each well and plates were incubated for 2 h. All solutions were then removed and 100 μL of DMSO was added to each well in order to dissolve the purple formazan crystals. A Thermo Scientific Multiskan EX microplate photometer was used to measure the absorbance in each well at 570 nm. Cell survival was determined as the absorbance of treated cells divided by the absorbance of controls and expressed as a percentage. The IC50 values were determined from plots of % survival against drug concentration. Each experiment was repeated in triplicates of triplicates and a mean value was obtained and stated as IC50 (μM) ± SD. Untreated cells were used as a negative control, and cells treated with cisplatin were used as a positive control.

[2] = test system: H460 non-small-cell lung cancer cells; assay: 24-hour MTT chemosensitivity assay with 72-hour recovery, H460; type: cell-based
Description: as §1, §2, §3

[3] = test system: A2780 ovarian cancer cells; assay: 24-hour MTT chemosensitivity assay with 72-hour recovery, A2780; type: cell-based, human; conditions: for Selectivity index (SI), A2780: mean IC50 PNT2 / mean IC50 A2780
Description: as §1, §2, §3

[4] = test system: PNT2 non-cancerous human prostate cells; assay: 24-hour MTT chemosensitivity assay with 72-hour recovery, PNT2; type: cell-based
Description: as §1, §2, §3

[5] = Combined results, Average of two experiments
[6] = Homo sapiens, NCI-H460, read-out: IC50 values ±SD, H460
[7] = Homo sapiens, A2780, read-out: IC50 values ±SD, A2780
[8] = Homo sapiens, PNT2, read-out: IC50 values ±SD, PNT2
[9] = 24 h exposure, 72 h recovery, MTT
[10] = 24 h exposure, 72 h recovery, MTT, read-out: IC50 values ±SD, H460
[11] = 24 h exposure, 72 h recovery, MTT, read-out: IC50 values ±SD, A2780
[12] = 24 h exposure, 72 h recovery, MTT, read-out: IC50 values ±SD, PNT2

## COc1cccc2c1C(=O)c1c(O)c3c(c(O)c1C2=O)C[C@@](O)(C(=O)CO)C[C@@H]3O[C@H]1C[C@H](N)[C@H](O)[C@H](C)O1 [Doxorubicin, doxorubicin, reference compound]
A2780 cells; [5]
  Early apoptosis (Q1-LR): 0.0%
  Late apoptosis (Q1-UR): 99.9%
  Necrosis (Q1-UL): 0.1%
A2780 cells; Experiment 1, Average
  Early apoptosis (Q1-LR): 0.0%
  Late apoptosis (Q1-UR): 99.9%
  Necrosis (Q1-UL): 0.1%
  Viable cells (Q1-LL): 0.0%
A2780 cells; Experiment 1, Rep 1
  Early apoptosis (Q1-LR): 0.0%
  Late apoptosis (Q1-UR): 99.8%
  Necrosis (Q1-UL): 0.2%
A2780 cells; Experiment 1, Rep 2
  Early apoptosis (Q1-LR): 0.0%
  Late apoptosis (Q1-UR): 99.9%
  Necrosis (Q1-UL): 0.1%
A2780 cells; Experiment 1, Rep 3
  Early apoptosis (Q1-LR): 0.0%
  Late apoptosis (Q1-UR): 100.0%
  Necrosis (Q1-UL): 0.0%
A2780 cells; Experiment 2, Average
  Early apoptosis (Q1-LR): 0.0%
  Late apoptosis (Q1-UR): 99.9%
  Necrosis (Q1-UL): 0.0%
  Viable cells (Q1-LL): 0.0%
A2780 cells; Experiment 2, Rep 1
  Early apoptosis (Q1-LR): 0.0%
  Late apoptosis (Q1-UR): 99.9%
  Necrosis (Q1-UL): 0.0%
A2780 cells; Experiment 2, Rep 2
  Early apoptosis (Q1-LR): 0.0%
  Late apoptosis (Q1-UR): 99.9%
  Necrosis (Q1-UL): 0.1%
A2780 cells; Experiment 2, Rep 3
  Early apoptosis (Q1-LR): 0.0%
  Late apoptosis (Q1-UR): 100.0%
  Necrosis (Q1-UL): 0.0%
A2780 cells; Combined results, Average of two experiments, read-out: Viable cells (Q1-LL)
  viability at 0.5 µM: 0%
A2780 cells; Experiment 1, Average, read-out: Viable cells (Q1-LL)
  viability at 0.5 µM: 0%
A2780 cells; Experiment 1, Rep 1, read-out: Viable cells (Q1-LL)
  viability at 0.5 µM: 0%
A2780 cells; Experiment 1, Rep 2, read-out: Viable cells (Q1-LL)
  viability at 0.5 µM: 0%
A2780 cells; Experiment 1, Rep 3, read-out: Viable cells (Q1-LL)
  viability at 0.5 µM: 0%
A2780 cells; Experiment 2, Average, read-out: Viable cells (Q1-LL)
  viability at 0.5 µM: 0%
A2780 cells; Experiment 2, Rep 1, read-out: Viable cells (Q1-LL)
  viability at 0.5 µM: 0%
A2780 cells; Experiment 2, Rep 2, read-out: Viable cells (Q1-LL)
  viability at 0.5 µM: 0.1%
A2780 cells; Experiment 2, Rep 3, read-out: Viable cells (Q1-LL)
  viability at 0.5 µM: 0%

## CC(=O)N1CN2CN(C(C)=O)CP(C2)C1 [DAPTA, 3,7‐diacetyl‐1,3,7‐triaza‐5‐phosphabicyclo[3.3.1]nonane]
[1]; Homo sapiens, A2780cisR
  IC50: ≥ 100 µM
[2]; [6]
  IC50: ≥ 100 µM
[3]; [7]
  IC50: ≥ 100 µM
[4]; [8]
  IC50: ≥ 100 µM

## O=S(=O)(O)c1cccc(P(c2cccc(S(=O)(=O)O)c2)c2cccc(S(=O)(=O)O)c2)c1 [TPPTS, triphenylphosphine‐3,3′,3′′‐trisulfonic acid trisodium salt]
[1]; [9]
  IC50: ≥ 100 µM
[2]; [10]
  IC50: ≥ 100 µM
[3]; [11]
  IC50: ≥ 100 µM
[4]; [12]
  IC50: ≥ 100 µM

## O=S(=O)(O)c1cccc(P(c2ccc(C(F)(F)F)cc2)c2cccc(S(=O)(=O)O)c2)c1 [p-DANPHOS, bis(3‐sulfonatophenyl)(4‐trifluoromethylphenyl)phosphine disodium dihydrate]
[1]; Homo sapiens, A2780cisR
  IC50: ≥ 100 µM
[2]; [6]
  IC50: ≥ 100 µM
[3]; [7]
  IC50: ≥ 100 µM
[4]; [8]
  IC50: ≥ 100 µM

## (η^6‐p‐cymene)(DAPTA)Ru(Mnt) [Complex 5]
[1]; [9]
  IC50: 72 ± 6 µM
[1]; IC50 A2780cisR / IC50 A2780
  Selectivity factor (cross-resistance, resistance factor RF): 5.1
[1]
  Selectivity index (SI), A2780cisR: 0.49
[2]; [10]
  IC50: ≥ 100 µM
[3]; [11]
  IC50: 14 ± 2 µM
[3]
  Selectivity index (SI), A2780: 2.36
[4]; [12]
  IC50: 33 ± 1.4 µM

## Cc1ccc(C(C)C)cc1.N#CC1=C(C#N)[S][Ru-]([P+](c2ccc(C(F)(F)F)cc2)(c2cccc(S(=O)(=O)[O-])c2)c2cccc(S(=O)(=O)[O-])c2)[S]1.[Na+].[Na+] [Complex 7, (η^6‐p‐cymene)(p‐DANPHOS)Ru(Mnt)]
[1]; [9]
  IC50: 2.3 ± 0.7 µM
[1]
  Selectivity index (SI), A2780cisR: 0.96
[2]; [10]
  IC50: 2.3 ± 0.3 µM
[2]; mean IC50 PNT2 / mean IC50 H460
  Selectivity index (SI), H460: 0.96
[3]; [11]
  IC50: 2.8 ± 0.8 µM
[3]
  Selectivity index (SI), A2780: 0.79
[4]; [12]
  IC50: 2.2 ± 0.1 µM

## C1N2CN3CN1CP(C2)C3 [PTA, 1,3,5‐triaza‐7‐phosphaadamantane]
[1]; Homo sapiens, A2780cisR
  IC50: ≥ 100 µM
[2]; [6]
  IC50: ≥ 100 µM
[3]; [7]
  IC50: ≥ 100 µM
[4]; [8]
  IC50: ≥ 100 µM
